# Laboratory results from US5561112A, “Pseudopeptide isosteres of gly-asp and their use as antithrombic agents” (Sandoz Ltd., priority 1992, dated 1996).
# Like-named read-outs stand apart in the source and are kept apart here.
# Columns and labels:
# [1] = test system: human blood platelets; experiment: Inhibition of the ADP-induced aggregation of human blood platelets in the presence of fibrinogen (PA); format: cell-based; conditions: washed human platelets, stimulated with ADP in the presence of fibrinogen, aggregometer
# Protocol: b) Inhibition of the ADP-induced aggregation of human blood platelets in the presence of fibrinogen: Blood platelets are isolated from fresh whole-blood by centrifugation, and washed. The washed platelets are resuspended in the presence of PGI2 and apyrase and stimulated with ADP ([…]) in the presence of fibrinogen. The ability of the platelets to aggregate in the presence or absence of inhibitors is quantified using an aggregometer.
# The inhibition of the ADP-induced platelet aggregation is brought about by compounds of formula I in a range of IC50 (concentration of compounds of formula I at which 50% of platelet aggregation is inhibited) of between 20 and 100 nM.
# (§1) The compounds of Examples 1 to 8 are tested to determine their IC50 values in the inhibition of the fibrinogen GPIIb/IIIa binding (FB) and inhibition of the ADP-induced platelet aggregation (PA) test procedures described above.
# [2] = target: T1, GP IIb/IIIa (Homo sapiens, UniProt P05106+P08514); experiment: Inhibition of binding of fibrinogen to isolated and immobilized GP IIb/IIIa (FB); conditions: biotin-labelled fibrinogen; GP IIb/IIIa isolated from human blood platelet membranes, bonded to microtitre plates; read-out: FB: IC50 (inhibition of the fibrinogen GPIIb/IIIa binding)
# T1 construct: GP IIb/IIIa is isolated from membranes of human blood platelets by triton X-100 extraction; from tissue; host or cells: human blood platelets (membranes)
# T1 sequence (P08514 32-887 limits assumed): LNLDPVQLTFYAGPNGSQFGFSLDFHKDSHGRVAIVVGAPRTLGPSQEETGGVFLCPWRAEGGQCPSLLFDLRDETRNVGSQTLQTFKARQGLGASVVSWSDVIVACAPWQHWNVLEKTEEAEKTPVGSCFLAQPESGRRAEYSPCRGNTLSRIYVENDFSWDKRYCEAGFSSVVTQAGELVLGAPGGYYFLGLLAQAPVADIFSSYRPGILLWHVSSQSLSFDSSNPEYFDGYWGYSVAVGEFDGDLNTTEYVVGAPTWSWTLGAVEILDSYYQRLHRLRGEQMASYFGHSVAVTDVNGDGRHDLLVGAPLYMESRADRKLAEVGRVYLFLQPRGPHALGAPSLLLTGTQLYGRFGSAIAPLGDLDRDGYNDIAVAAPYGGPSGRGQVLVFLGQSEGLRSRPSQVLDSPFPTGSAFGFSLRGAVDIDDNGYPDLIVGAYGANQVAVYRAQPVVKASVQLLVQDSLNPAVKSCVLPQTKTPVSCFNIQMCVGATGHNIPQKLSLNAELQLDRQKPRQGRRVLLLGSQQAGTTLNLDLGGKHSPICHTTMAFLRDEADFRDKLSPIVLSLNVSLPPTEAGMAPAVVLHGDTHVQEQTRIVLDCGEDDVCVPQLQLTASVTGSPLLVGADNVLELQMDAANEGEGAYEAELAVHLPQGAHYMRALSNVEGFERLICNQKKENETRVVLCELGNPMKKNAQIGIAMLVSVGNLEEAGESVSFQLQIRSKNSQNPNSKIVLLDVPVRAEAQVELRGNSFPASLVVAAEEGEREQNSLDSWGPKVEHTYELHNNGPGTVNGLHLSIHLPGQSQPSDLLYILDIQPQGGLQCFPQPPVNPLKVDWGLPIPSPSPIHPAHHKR
# T1 sequence (P05106 27-788): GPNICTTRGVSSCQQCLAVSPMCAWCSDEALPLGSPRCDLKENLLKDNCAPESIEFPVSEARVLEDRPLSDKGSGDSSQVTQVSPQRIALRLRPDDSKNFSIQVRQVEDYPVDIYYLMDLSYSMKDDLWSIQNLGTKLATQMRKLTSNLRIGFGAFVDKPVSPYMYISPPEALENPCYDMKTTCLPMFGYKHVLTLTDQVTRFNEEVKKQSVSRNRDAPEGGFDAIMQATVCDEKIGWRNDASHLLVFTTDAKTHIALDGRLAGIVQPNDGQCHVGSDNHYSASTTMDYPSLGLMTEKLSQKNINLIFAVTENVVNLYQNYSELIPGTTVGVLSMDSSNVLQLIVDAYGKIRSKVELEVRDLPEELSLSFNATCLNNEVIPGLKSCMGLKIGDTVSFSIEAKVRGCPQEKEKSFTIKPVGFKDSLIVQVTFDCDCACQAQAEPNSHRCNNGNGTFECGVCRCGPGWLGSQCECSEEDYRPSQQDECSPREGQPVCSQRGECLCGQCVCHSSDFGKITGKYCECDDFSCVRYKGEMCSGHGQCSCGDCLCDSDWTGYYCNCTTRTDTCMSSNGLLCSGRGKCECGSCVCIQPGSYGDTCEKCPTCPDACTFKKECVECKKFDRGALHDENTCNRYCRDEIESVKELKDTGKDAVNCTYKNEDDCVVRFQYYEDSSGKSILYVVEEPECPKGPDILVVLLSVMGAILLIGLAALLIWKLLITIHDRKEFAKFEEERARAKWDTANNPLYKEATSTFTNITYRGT
# Source text: a) Inhibition of binding of fibrinogen to isolated and immobilized GP IIb/IIIa: GP IIb/IIIa is isolated from membranes of human blood platelets by triton X-100 extraction and purified by chromatography on ion exchangers and by gel filtration. The receptor protein thus obtained is bonded to microtitre plates. The inhibition of the binding of biotin-labelled fibrinogen to the receptor in the presence of inhibitor is quantified.
# The compounds of formula I effect an inhibition of the fibrinogen GP IIb/IIIa binding in a range of IC50 (concentration of compounds of formula I which reduce the binding of fibrinogen to the receptor by 50%) of between 0.5 and 20 nM.
# as §1
# [3] = read-out: PA: IC50 (inhibition of the ADP-induced platelet aggregation)
SMILES,IC50 ([1]; Platelet) [nM],IC50 [2] [nM],"IC50 [1, 3] [nM]"
"COc1ccc(CCC(=O)N[C@@H]2CC(=O)O[C@H](CNC(=O)Cc3ccc(C(=N)N)cc3)C2)cc1 [Example 7, (3S,5S)-6-(4-amidinophenylacetylamino)-5-hydroxy-3-(4-methoxyphenylpropionylamino)-hexanoic acid-δ-lactone]",–,0.5,80
"CC(C)CC(=O)N[C@@H](CCCNC(=O)Cc1ccc(C(=N)N)cc1)CC(=O)O [Example 2, (S)-3-[N-(3-methylbutyryl)amino]-6-[N-(p-amidinophenylacetyl)amino]hexanoicacid]",100,1.7,–
"CC(C)CC(=O)N[C@@H]1CC(=O)O[C@H](CNC(=O)Cc2ccc(C(=N)N)cc2)C1 [Example 8, (3S,5S)-6-(4-amidino-phenylacetylamino)-5-hydroxy-3-(3-methyl-butyrylamino)-hexanoic acid-δ-lactone]",–,0.9,110
"N=C(N)c1ccc(CC(=O)NCCC[C@@H](CC(=O)O)NC(=O)CCC23CC4CC(CC(C4)C2)C3)cc1 [Example 5, (S)-3-[N-(3-adamant-1-ylpropionyl)amino]-6-[N-(p-amidinophenylacetyl)amino]hexanoic acid]",61,0.4,–
"CC(C)CC(=O)N[C@@H](CCCCNC(=O)c1ccc(C(=N)N)cc1)CC(=O)O [Example 6, (S)-3-(N-(3-methylbutyryl)amino]-7-[N-(p-amidinobenzoyl)amino]heptanoic acid]",15,0.5,–

# Results, then the compound that gave them:
IC50 ([1]; Platelet) [nM],IC50 [2] [nM],"IC50 [1, 3] [nM]",SMILES
640,7.6,–,"Cc1ccc(S(=O)(=O)N[C@@H](CCCNC(=O)Cc2ccc(C(=N)N)cc2)CC(=O)O)cc1 [Example 1, (S)-3-(N-tosylamino)-6-[N-(p-amidinophenylacetyl)amino]hexanoic acid]"
67,2.2,–,"N=C(N)c1ccc(CC(=O)NCCC[C@@H](CC(=O)O)NC(=O)CC23CC4CC(CC(C4)C2)C3)cc1 [Example 4, (S)-3-[N-(adamant-1-ylacetyl)amino]-6-[N-(p-amidinophenylacetyl)amino]hexanoic acid]"
–,1.1,31,"COc1ccc(CCC(=O)N[C@@H](CCCNC(=O)Cc2ccc(C(=N)N)cc2)CC(=O)O)cc1 [Example 3, (S)-3-N-[3-(p-methoxyphenyl)propionyl]amino-6-[N-(p-amidinophenylacetyl)amino]hexanoic acid]"
